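Briefly, cells in 96-well plates were exposed to five compound concentrations for 48 h, and endpoints were estimated by linear interpolation. At the GI50, growth is halved. TGI denotes the concentration required for complete inhibition of growth.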

Our source for the TGI and GI50 values is PubChem BioAssay (NCI).

What all share (test): NCI anticancer screen, dose series, 48 h
The subject of assay [1] is K-562 leukemia.
In assay [2] the test system is SK-MEL-2 melanoma.
The test system of assay [3] is SK-MEL-5 melanoma.
Assay [4] relates to SW-620 colon.
Assay [5] deals with OVCAR-4 ovarian.
The test system of assay [6] is MDA-MB-435.
In assay [7] the test system is KM12 colon.
In assay [8] the test system is UACC-257 melanoma.

Take `O=S(=O)(/N=c1/scc(-c2ccccc2)n1-c1ccccc1)c1ccc(N2N=C3c4ccccc4CC3C2c2cccs2)cc1` (stereo not given): the TGI in assay [1], in assay [2], in assay [3], in assay [4], in assay [5] and in assay [6] was greater than 100 µM throughout. The TGI in assay [7] and in assay [8] was greater than 100 µM throughout. Moreover, the GI50 in assay [2] was greater than 100 µM; in assay [3] it was 48 µM; in assay [4], 94.2 µM; in assay [5], greater than 100 µM; in assay [6], 38.7 µM; in assay [7] it was 32.1 µM. The GI50 in assay [8] is greater than 100 µM.

In the case of `Cc1ccc(Cl)c(Nc2ccccc2C(=O)O)c1Cl`, the GI50 in assay [1] was 33.2 µM; in assay [2], 26.3 µM; in assay [3], 18.2 µM; in assay [4], 34.4 µM; in assay [5] it was 29.9 µM; in assay [6], 23.8 µM. Besides, the GI50 in assay [7] was 29.3 µM; in assay [8], 27.4 µM. In addition, the TGI in assay [1] is greater than 100 µM; in assay [2] it was 76 µM; in assay [3], 33.5 µM; in assay [4], greater than 100 µM; in assay [5], 94.6 µM; in assay [6], 85.3 µM. The TGI in assay [7] was 77.1 µM; in assay [8], greater than 100 µM.

On to `CC(C)(C)CC(N)=O`, for which the TGI in assay [1], in assay [2], in assay [3], in assay [4], in assay [5] and in assay [6] was greater than 100 µM throughout. Further, the TGI in assay [7] and in assay [8] was greater than 100 µM throughout.

With `CN1C/C=C/CCOc2cccc(c2)-c2ccnc(n2)Nc2cccc(c2)C1`, the GI50 in assay [1] is 0.0989 µM; in assay [2], 0.0374 µM; in assay [3], 0.0318 µM; in assay [4], 0.0396 µM; in assay [5] it was 0.108 µM; in assay [6] it was 0.0366 µM. The GI50 in assay [7] is 0.0333 µM; in assay [8], 0.0505 µM. Besides, the TGI in assay [1] was greater than 20.8 µM; in assay [2] it was 0.125 µM; in assay [3], 0.222 µM; in assay [4], 0.969 µM; in assay [5], 1.31 µM; in assay [6] it was 0.153 µM. Moreover, the values for the TGI in assay [7] and in assay [8] were 0.176 µM and 0.225 µM, respectively.

`Cn1c(NCC(O)CN2CCCC2)cc(=O)n(C)c1=O` (stereo not given): the GI50 in assay [1], in assay [2], in assay [3], in assay [4], in assay [5] and in assay [6] was greater than 100 µM in each case. The GI50 in assay [7] and in assay [8] was greater than 100 µM throughout. Also, the TGI in assay [1], in assay [2], in assay [3], in assay [4], in assay [5] and in assay [6] was greater than 100 µM each time. The TGI in assay [7] and in assay [8] was greater than 100 µM in each case.

For the molecule `CCCCCCCCCCCCCCCCC(=O)O.CCCCCCCCCCCCCCCCCC(=O)O.CCCCCCCCCCCCCCCCCC(=O)O.CCCCCCCCCCCCCCCCCC(=O)O.CCCCCCCCCCCCCCCCCC(=O)O.CO[CH-]OC12COC1CC(O)C1(C)C(O)C(OC(C)O)C3=C(C)C(OC(=O)C(O)C([NH-])c4ccccc4)CC(O)(C(OC(=O)c4ccccc4)C21)C3(C)C.[Cu+].[Zn].[Zn].[Zn].[Zn].[Zn]` (stereo not given), the GI50 in assay [1] is 0.005 µM; in assay [2], less than 0.0118 µM; in assay [4], 0.00662 µM; in assay [5], 2.35 µM; in assay [7], 0.00656 µM; in assay [8], 3.91 µM. For the same molecule, the TGI is greater than 25 µM in assay [1]; 11.2 µM in assay [2]; 3.57 µM in assay [3]; greater than 16.2 µM in assay [4]; 11.7 µM in assay [5]; greater than 25 µM in assay [7]. In addition, the TGI in assay [8] is greater than 25 µM.

In the case of `COc1cc(C(=O)Nc2cc(OC)c3ccn(C)c3c2)cc2c1C[C@]1(C)CC[C@@H](O)C(C)(C)[C@H]1O2`, the GI50 is 0.597 µM in assay [1]; 0.323 µM in assay [2]; 0.384 µM in assay [3]; 1.04 µM in assay [4]; 4.14 µM in assay [5]; 1.01 µM in assay [6]. Also, the GI50 in assay [7] is 2.08 µM; in assay [8] it was 1.63 µM. Besides, the TGI in assay [1] is greater than 100 µM; in assay [2], 4.48 µM; in assay [3], 1.72 µM; in assay [4], 10 µM; in assay [5], greater than 100 µM; in assay [6], 3.38 µM. Further, the TGI in assay [7] is greater than 100 µM; in assay [8], 30.7 µM.

With `COc1cc(-c2c(C#N)c(N)nc(N3CCOCC3)c2C#N)cc(OC)c1OC`, the GI50 in assay [1], in assay [2], in assay [3], in assay [4], in assay [5] and in assay [6] was greater than 100 µM each time. Further, the GI50 in assay [7] and in assay [8] was greater than 100 µM each time. Besides, the TGI in assay [1], in assay [2], in assay [3], in assay [4], in assay [5] and in assay [6] was greater than 100 µM throughout. For the same molecule, the TGI in assay [7] and in assay [8] was greater than 100 µM in each case.

Take `CN(C)c1ccc(/C=C/C2=[N+](C)c3ccccc3C2(C)C)cc1`: the GI50 in assay [1] was 0.512 µM; in assay [2], 1.61 µM; in assay [4] it was 0.379 µM; in assay [5], 1.63 µM; in assay [6] it was 0.467 µM; in assay [7] it was 0.328 µM. Further, in assay [8], the GI50 is 0.658 µM. Also, the TGI was greater than 100 µM in assay [1]; 16.8 µM in assay [2]; 17.8 µM in assay [4]; 31.5 µM in assay [5]; 11.7 µM in assay [6]; 5.85 µM in assay [7]. The TGI in assay [8] stood at 6.17 µM.
